In the SangsterLogP compilation:

assay: method code SF-AS, from DOI: 10.1002/chin.197535153

Compound | logP
CC(C)c1ccccc1OC(=O)c1ccc(N)cc1O | 4.28
Nc1ccc(C(=O)O)c(O)c1 | 0.87
Nc1ccc(C(=O)Oc2ccc(F)cc2)c(O)c1 | 3.27
Nc1ccc(C(=O)Oc2ccc(Br)cc2)c(O)c1 | 3.46
Nc1ccc(C(=O)Oc2ccccc2)c(O)c1 | 3.15
Cc1ccccc1OC(=O)c1ccc(N)cc1O | 3.14
COc1cccc(OC(=O)c2ccc(N)cc2O)c1 | 3.25
CC(C)(C)c1ccccc1OC(=O)c1ccc(N)cc1O | 4.21
Cc1cccc(OC(=O)c2ccc(N)cc2O)c1 | 3.64
Nc1ccc(C(=O)Oc2cccc(Br)c2)c(O)c1 | 3.84
Nc1ccc(OC(=O)c2ccc(N)cc2O)cc1 | 2.04
Nc1ccc(C(=O)Oc2ccccc2F)c(O)c1 | 3.29
Cc1ccc(OC(=O)c2ccc(N)cc2O)cc1 | 3.38
Nc1ccc(C(=O)Oc2cccc(Cl)c2)c(O)c1 | 3.9
CC(C)c1ccc(OC(=O)c2ccc(N)cc2O)cc1 | 4.12
COc1ccccc1OC(=O)c1ccc(N)cc1O | 2.88
Nc1ccc(C(=O)Oc2ccccc2Br)c(O)c1 | 3.74
Nc1ccc(C(=O)Oc2cccc(C(F)(F)F)c2)c(O)c1 | 3.61
Cc1cccc(C)c1OC(=O)c1ccc(N)cc1O | 3.88
Nc1ccc(C(=O)Oc2ccc(Cl)cc2)c(O)c1 | 3.6
Nc1ccc(C(=O)Oc2ccccc2Cl)c(O)c1 | 3.72
Nc1ccc(C(=O)Oc2cccc(F)c2)c(O)c1 | 3.42
Nc1ccc(C(=O)Oc2ccc(Cl)cc2Cl)c(O)c1 | 4.27
Nc1cccc(OC(=O)c2ccc(N)cc2O)c1 | 2.08
COc1ccc(OC(=O)c2ccc(N)cc2O)cc1 | 3.07
